ChEMBL document CHEMBL5214929, “Updated chemical scaffolds of ABCG2 inhibitors and their structure-inhibition relationships for future development” (Eur J Med Chem, 2022)

How the values were obtained:
S1-M1-80 = assay: Cytotoxicity against human S1M180 cells in presence of topotecan; format: functional, cell-based
[1] = Reversal of mitoxantrone resistance in human T8 cells; format: functional; conditions: T8 cell
HEK293 [2] = assay: Cytotoxicity against HEK293 cells expressing ABCG2-482-R in presence of methotrexate; format: functional, cell-based; conditions: Homo sapiens
HEK293 [3] = assay: Cytotoxicity against HEK293 cells expressing ABCG2-482-T7 in presence of methotrexate; format: functional, cell-based; conditions: Homo sapiens
[4] = molecular target: T1, Broad substrate specificity ATP-binding cassette transporter ABCG2 (Homo sapiens, UniProt Q9UNQ0); assay: Inhibition of ABCG2 (unknown origin)
T1 sequence (Q9UNQ0 whole entry): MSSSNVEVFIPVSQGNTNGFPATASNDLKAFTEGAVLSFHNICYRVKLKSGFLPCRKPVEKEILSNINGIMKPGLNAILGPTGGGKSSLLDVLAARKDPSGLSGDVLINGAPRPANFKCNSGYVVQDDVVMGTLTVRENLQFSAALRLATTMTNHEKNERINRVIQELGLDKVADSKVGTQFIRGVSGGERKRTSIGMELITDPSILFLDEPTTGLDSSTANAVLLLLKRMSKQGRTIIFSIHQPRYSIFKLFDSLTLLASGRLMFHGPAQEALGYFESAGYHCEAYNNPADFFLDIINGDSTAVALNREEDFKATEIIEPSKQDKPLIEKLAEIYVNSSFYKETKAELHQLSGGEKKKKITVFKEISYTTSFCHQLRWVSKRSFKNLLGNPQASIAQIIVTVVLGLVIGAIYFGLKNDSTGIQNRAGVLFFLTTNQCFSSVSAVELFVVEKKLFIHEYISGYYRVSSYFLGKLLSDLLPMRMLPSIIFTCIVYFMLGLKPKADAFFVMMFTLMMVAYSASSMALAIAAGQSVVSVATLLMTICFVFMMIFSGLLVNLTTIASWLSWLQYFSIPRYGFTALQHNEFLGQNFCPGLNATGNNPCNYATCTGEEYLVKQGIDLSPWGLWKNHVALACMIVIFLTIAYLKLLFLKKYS

MCF7 = assay: Cytotoxicity against human MCF7 cells assessed as increase in cytotoxic drug half inhibitory concentration; format: functional, cell-based
[5] = molecular target: T1, Broad substrate specificity ATP-binding cassette transporter ABCG2; assay: Inhibition of ABCG2 (unknown origin) overexpressing in dog MDCK-II-BCRP cells measured after 30 mins by flow cytometric analysis; format: cell-based
[6] = molecular target: T1, Broad substrate specificity ATP-binding cassette transporter ABCG2; assay: Inhibition of ABCG2 (unknown origin) in Sf9 membrane vesicles using [3H] methotrexate as substrate; format: cell membranes
HEK293 [7] = assay: Cytotoxicity against HEK293 cells expressing ABCG2-R-482 in presence of methotrexate; format: functional, cell-based; conditions: Homo sapiens
HEK293 [8] = assay: Cytotoxicity against HEK293 cells expressing ABCG2-R-482 mutant assessed as decrease in mitoxantrone half inhibitory concentration; format: functional, cell-based; conditions: Homo sapiens
HEK293 [9] = assay: Cytotoxicity against HEK293 cells expressing ABCG2-R-482 wildtype assessed as decrease in mitoxantrone half inhibitory concentration; format: functional, cell-based; conditions: Homo sapiens
HEK293 [10] = assay: Cytotoxicity against HEK293 cells expressing ABCG2 in presence of methotrexate; format: functional, cell-based; conditions: Homo sapiens

Q: With `COc1cc2/c(=N/c3ccc(Br)cc3F)nc[nH]c2cc1OCC1CCN(C)CC1` [VANDETANIB] as the compound, how does the IC50 (S1-M1-80) read?
A: 1240 nM

Q: With `COc1cc2c(cc1OC)CN(CCc1ccc(NC(=O)c3cccc4c(=O)c5cccc(OC)c5[nH]c34)cc1)CC2` [ELACRIDAR] as the compound, how does the EC90 [1] read?
A: 51 nM

Q: Which EC90 [1] does the source give for `COc1ccc2c3c([nH]c2c1)[C@@H](CC(C)C)N1C(=O)[C@@H](CCC(=O)OC(C)(C)C)NC(=O)[C@@H]1C3` here?
A: 23 nM

Q: What does the source list for `Cc1cn(-c2cc(NC(=O)c3ccc(C)c(Nc4nccc(-c5cccnc5)n4)c3)cc(C(F)(F)F)c2)cn1` [NILOTINIB]?
A: IC50 (HEK293 [2]): 128 nM; IC50 (HEK293 [3]): 147 nM

Q: Which IC50 [4] does the source give for `Cn1cc(-c2cc3c(N4CCN(c5ncc([C@@](C)(N)c6ccc(F)cc6)cn5)CC4)ncnn3c2)cn1` [AVAPRITINIB] here?
A: 1.5 nM

Q: For `COc1ccc2c3c([nH]c2c1)[C@@H](C=C(C)C)N1C(=O)[C@@H]2CCCN2C(=O)[C@@H]1C3`, which IC50 (MCF7) is on record?
A: 1000 nM

Q: For `COc1ccc(-c2c3occc3c(OC[C@H]3OC3(C)C)c3ccc(=O)oc23)cc1OC`, which IC50 [5] is on record?
A: 43100 nM

Q: With `C=CC(O)C#CC#CC/C=C\CCCCCCC` (stereo not given) as the compound, how does the IC50 [6] read?
A: 41700 nM

Q: Which IC50 (HEK293 [7]) does the source give for `Nc1ncnc2c1c(-c1ccc(Oc3ccccc3)cc1)nn2C1CCCC1` here?
A: 57 nM

Q: Which IC50 (HEK293 [2]) does the source give for `C=CC(=O)Nc1cccc(Nc2nc(Nc3ccc(N4CCN(C(C)=O)CC4)cc3OC)ncc2C(F)(F)F)c1` [ROCILETINIB] here?
A: 11.9 nM

Q: And the IC50 (HEK293 [3])?
A: 7.2 nM

Q: For `COc1cc2nccc(Oc3ccc(NC(=O)C4(C(=O)Nc5ccc(F)cc5)CC4)cc3)c2cc1OC` [CABOZANTINIB], which IC50 (HEK293 [2]) is on record?
A: 27 nM

Q: What about the IC50 (HEK293 [3]) of the same compound?
A: 34 nM

Q: Which IC50 (HEK293 [8]) does the source give for `Cc1[nH]c(/C=C2\C(=O)Nc3ccc(F)cc32)c(C)c1C(=O)N[C@H]1CCN(C(=O)N(C)C)C1` [VOROLANIB] here?
A: 58 nM

Q: What about the IC50 (HEK293 [9]) of the same compound?
A: 15.5 nM

Q: For `CC(C)C[C@@H]1c2[nH]c3ccccc3c2C[C@H]2C(=O)N[C@H](CCC(=O)OC(C)(C)C)C(=O)N12`, which EC90 [1] is on record?
A: 85 nM

Q: For `COc1cc2ncnc(Nc3ccc(F)c(Cl)c3)c2cc1NC(=O)/C=C/CN1CCCCC1` [DACOMITINIB ANHYDROUS], which IC50 (HEK293 [10]) is on record?
A: 185 nM

Q: With `C=CC(O)C#CC#CC(O)/C=C\CCCCCCC` (stereo not given) as the compound, how does the IC50 [6] read?
A: 29700 nM

Q: For `CC(C)C[C@@H]1c2[nH]c3ccccc3c2C[C@H]2C(=O)N[C@H](CCCCNC(=O)OC(C)(C)C)C(=O)N12`, which EC90 [1] is on record?
A: 190 nM
